Results from ChEMBL document CHEMBL5034023, “Development of Multifunctional and Orally Active Cyclic Peptide Agonists of Opioid/Neuropeptide FF Receptors that Produce Potent, Long-Lasting, and Peripherally Restricted Antinociception with Diminished Side Effects” (J Med Chem, 2021).
Activity calls are given as the source filed them. No cut-off for these calls is given here. Bridge positions count the residues as written; N and C are the ends. Square brackets hold non-standard residues; d marks the D form. Peptide text beside a SMILES is read from it. NMeF = CN[C@@H](Cc1ccccc1)C(=O)O; dDap = NC[C@@H](N)C(=O)O

Assays:
[1] = molecular target: T1, Delta-type opioid receptor (Homo sapiens, UniProt P41143); test: (§1) Agonist activity at DOR (unknown origin) expressed in HEK293-A cells assessed as inhibition of forskolin-induced cAMP accumulation preincubated for 30 mins in presence of 3-isobutyl-1-methylxanthine followed by forskolin and compound addition by competitive PKA binding assay relative to control; assay type: functional, cell-based; details: filed as agonist
Mus musculus [2] = test: Antinociceptive activity against Kunming mouse model of thermal-induced nociception assessed as peripheral analgesia administered subcutaneously by tail-flick test; assay type: functional; details: sc
Mus musculus [3] = test: Antinociceptive activity against Kunming mouse model of thermal-induced nociception assessed as maximum possible effect at 90.1 nmol/kg, po measured after 60 min by tail flick test relative to control; assay type: functional; details: 1 h
Mus musculus [4] = test: Antinociceptive activity in Kunming mouse assessed as analgesic tolerance administered subcutaneously once daily for 8 days by tail flick test; assay type: functional, organism-based; details: time 8.0 day
Mus musculus [5] = test: Potency index, ratio of test compound ED50 to DN-9 ED50 for antinociceptive activity against Kunming mouse model of thermal-induced nociception assessed as peripheral analgesia administered subcutaneously by tail-flick test; assay type: functional
Mus musculus [6] = test: Antinociceptive activity against Kunming mouse model of thermal-induced nociception assessed as duration of analgesic effect administered subcutaneously by tail-flick test; assay type: functional
[7] = molecular target: T2, Neuropeptide FF receptor 2 (Homo sapiens, UniProt Q9Y5X5); test: as §1, with “NPFF2R” for “DOR”, “accumulation by measuring maximal efficacy” for “accumulation”; assay type: functional, cell-based; details: filed as agonist
[8] = molecular target: T3, Neuropeptide FF receptor 1 (Homo sapiens, UniProt Q9GZQ6); test: Agonist activity at NPFF1R (unknown origin) expressed in HEK293-A cells assessed as inhibition of forskolin-induced cAMP accumulation preincubated for 30 mins in presence of 3-isobutyl-1-methylxanthine followed by forskolin and compound addition by competitive PKA binding assay; assay type: functional, cell-based
[9] = molecular target: T2, Neuropeptide FF receptor 2; test: Agonist activity at NPFF2R (unknown origin) expressed in HEK293-A cells assessed as inhibition of forskolin-induced cAMP accumulation preincubated for 30 mins in presence of 3-isobutyl-1-methylxanthine followed by forskolin and compound addition by competitive PKA binding assay; assay type: functional, cell-based
Mus musculus [10] = test: Antinociceptive activity against Kunming mouse model of thermal-induced nociception assessed as maximum possible effect at 90.1 nmol/kg, po measured after 20 min by tail flick test relative to control; assay type: functional
[11] = Metabolic stability in mouse plasma assessed as degradation half life at 0.01 M measured up to 360 mins; assay type: ADME, cell-free
[12] = molecular target: T1, Delta-type opioid receptor; test: Agonist activity at DOR (unknown origin) expressed in HEK293-A cells assessed as inhibition of forskolin-induced cAMP accumulation preincubated for 30 mins in presence of 3-isobutyl-1-methylxanthine followed by forskolin and compound addition by competitive PKA binding assay; assay type: functional, cell-based
Mus musculus [13] = test: Antinociceptive activity against Kunming mouse model of thermal-induced nociception assessed as maximum possible effect at 90.1 nmol/kg, po measured after 30 min by tail flick test relative to control; assay type: functional; details: 0.5 h
[14] = molecular target: Kappa-type opioid receptor (Homo sapiens, UniProt P41145); assay type: functional, cell-based, HEK293-A
Mu-type opioid receptor = Mu-type opioid receptor (Homo sapiens, UniProt P35372)
[15] = molecular target: T3, Neuropeptide FF receptor 1; test: as §1, with “NPFF1R” for “DOR”, “accumulation by measuring maximal efficacy” for “accumulation”; assay type: functional, cell-based; details: filed as agonist

T2 sequence (Q9Y5X5 whole entry): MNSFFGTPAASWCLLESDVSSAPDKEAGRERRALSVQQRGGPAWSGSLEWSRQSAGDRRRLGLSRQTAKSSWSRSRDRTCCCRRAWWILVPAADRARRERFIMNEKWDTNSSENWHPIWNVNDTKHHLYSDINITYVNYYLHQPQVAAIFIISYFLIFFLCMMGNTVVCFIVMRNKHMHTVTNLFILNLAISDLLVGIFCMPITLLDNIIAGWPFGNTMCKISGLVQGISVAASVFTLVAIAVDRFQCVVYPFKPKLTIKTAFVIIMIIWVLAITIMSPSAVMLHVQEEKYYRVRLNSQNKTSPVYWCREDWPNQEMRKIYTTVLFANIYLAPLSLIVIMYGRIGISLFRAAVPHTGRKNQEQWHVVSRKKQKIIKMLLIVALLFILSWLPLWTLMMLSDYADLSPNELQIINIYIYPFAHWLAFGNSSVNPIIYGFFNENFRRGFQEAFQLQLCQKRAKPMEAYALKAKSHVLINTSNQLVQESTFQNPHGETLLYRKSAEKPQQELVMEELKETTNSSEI
T3 sequence (Q9GZQ6 whole entry): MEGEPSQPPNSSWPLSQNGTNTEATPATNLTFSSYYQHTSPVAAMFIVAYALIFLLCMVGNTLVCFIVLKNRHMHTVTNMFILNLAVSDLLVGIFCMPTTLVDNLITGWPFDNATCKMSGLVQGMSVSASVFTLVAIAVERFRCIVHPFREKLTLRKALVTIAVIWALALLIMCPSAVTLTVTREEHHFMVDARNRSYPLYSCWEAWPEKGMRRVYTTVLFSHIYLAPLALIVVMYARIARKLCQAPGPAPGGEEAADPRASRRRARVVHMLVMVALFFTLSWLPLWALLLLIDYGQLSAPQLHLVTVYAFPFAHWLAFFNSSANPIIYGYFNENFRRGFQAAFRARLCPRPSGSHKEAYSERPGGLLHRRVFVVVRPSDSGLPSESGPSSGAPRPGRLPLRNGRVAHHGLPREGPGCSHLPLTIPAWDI
T1 sequence (P41143 whole entry): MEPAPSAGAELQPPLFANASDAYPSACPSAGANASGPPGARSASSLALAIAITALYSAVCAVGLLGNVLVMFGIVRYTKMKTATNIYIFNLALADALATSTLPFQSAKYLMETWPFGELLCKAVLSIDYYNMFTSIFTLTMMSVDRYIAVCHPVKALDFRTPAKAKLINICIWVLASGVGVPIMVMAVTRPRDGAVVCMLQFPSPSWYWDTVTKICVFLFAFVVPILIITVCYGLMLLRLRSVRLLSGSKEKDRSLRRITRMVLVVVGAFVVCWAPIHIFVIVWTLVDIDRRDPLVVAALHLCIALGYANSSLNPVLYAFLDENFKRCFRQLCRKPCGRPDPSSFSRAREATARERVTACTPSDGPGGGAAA
Kappa-type opioid receptor, sequence (P41145 whole entry): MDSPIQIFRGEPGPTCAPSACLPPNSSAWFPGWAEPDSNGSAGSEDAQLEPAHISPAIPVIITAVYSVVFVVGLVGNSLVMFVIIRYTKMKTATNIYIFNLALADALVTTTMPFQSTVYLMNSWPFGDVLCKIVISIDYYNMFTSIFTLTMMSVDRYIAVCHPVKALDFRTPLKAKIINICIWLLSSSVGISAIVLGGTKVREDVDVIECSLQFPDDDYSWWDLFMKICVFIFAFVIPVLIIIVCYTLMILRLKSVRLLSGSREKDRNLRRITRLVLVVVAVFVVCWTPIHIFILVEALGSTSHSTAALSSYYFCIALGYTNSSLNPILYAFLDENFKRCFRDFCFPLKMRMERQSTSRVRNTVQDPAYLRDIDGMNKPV
Mu-type opioid receptor, sequence (P35372 whole entry): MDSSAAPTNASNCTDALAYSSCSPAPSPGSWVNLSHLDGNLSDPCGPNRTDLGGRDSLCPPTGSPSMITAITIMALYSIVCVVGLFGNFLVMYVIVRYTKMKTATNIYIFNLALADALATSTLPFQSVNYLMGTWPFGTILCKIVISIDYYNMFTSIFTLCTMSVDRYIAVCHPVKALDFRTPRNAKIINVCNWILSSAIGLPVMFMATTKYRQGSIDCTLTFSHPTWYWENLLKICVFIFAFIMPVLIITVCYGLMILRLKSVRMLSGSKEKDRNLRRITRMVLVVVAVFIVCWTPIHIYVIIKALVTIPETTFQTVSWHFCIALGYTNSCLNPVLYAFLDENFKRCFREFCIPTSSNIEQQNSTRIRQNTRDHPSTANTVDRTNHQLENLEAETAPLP

CN1C(=O)CNC(=O)[C@H](NC(=O)[C@@H](N)Cc2ccc(O)cc2)CNC(=O)C[C@@H](C(=O)N2CCC[C@H]2C(=O)N[C@@H](CCC(N)=O)C(=O)N[C@@H](CCCNC(=N)N)C(=O)N[C@@H](Cc2ccccc2)C(N)=O)NC(=O)[C@@H]1Cc1ccccc1 (H-Y[dDap]G[NMeF]DPQRF-NH2; lactam 2-5) gave an Emax [1] of 48%, an ED50 (Mus musculus [2]) of 0.0135 µmol/kg and an MPE (Mus musculus [3]) of 80.8%. For the same compound, the Activity (Mus musculus [4]) was “inactive”, the “Ratio ED50” value (Mus musculus [5]) was 16 and the Tlast (Mus musculus [6]) was 240 min. For the same compound, the Emax [7] was 63.9%, the EC50 [8] was 90.1 nM and the EC50 ([9]; read-out: EC50) was 349 nM. The EC50 ([9]; read-out: pEC50 (converted)) was 355 nM, the MPE (Mus musculus [10]) was 93.2% and the half-life at 10000 µM [11] was 1.09 h. The EC50 [12] was 374 nM, the MPE (Mus musculus [13]) was 97.5% and the EC50 [14] was 136 nM. For the same compound, the EC50 (Mu-type opioid receptor) was 238 nM and the Emax [15] was 47.5%.
